Legend:
[1] = Hydrogen peroxide assay (DCF fluorometric); format: biochemical; conditions: Cu(II) 1 μM; catalase 1000 U/ml or TETA 200 μM
Method: Hydrogen Peroxide Assay—The fluorometric assay for hydrogen peroxide is based on the dichlorofluorescein diacetate (DCF) method (Molecular Probes, Eugene, Oreg.). The DCF solution (5 mM) in 100% ethanol was deacetylated in the presence of 0.01 M NaOH for 30 minutes and neutralized. Horseradish peroxidase (200 U/ml) was then added and the DCF concentration adjusted to 200 μM in PBS. The reaction solutions were carried out in PBS, pH 7.4, in a 96-well format plate (total volume=300 μL/well) and contained a test compound (KYN, 3-HK, 3-HAA, ANA, or ASC, each at 10 μM), deacetylated DCF (20 μM), and Cu(II)-glycine (1 μM) as indicated, incubated at 37° C. for 60 minutes. […] Abolition of the reading by co-incubation with catalase (1000 U/ml) was used for establishing H2O2 specificity. The fluorescent readings were recorded by a Packard FLURORCOUNT™ fluorescent plate reader with a 485 nm excitation filter and 530 nm emission filter. Concentrations were determined by comparison to a standard curve using reagent grade hydrogen peroxide in CHELEX™ chelating ion exchanae resin-treated PBS buffer, pH 7.4.
Reactions were conducted in the absence of added Cu(II), in the presence of added glycine-complexed Cu(II) (1 μM), in the presence of added glycine-complexed Cu(II) (1 μM) and catalase (1000 U/ml), or with added glycine-complexed Cu(II) (1 μM) and the copper chelator triethylenetetramine (TETA, 200 μM).

[2] = biological target: bovine serum albumin (BSA) (Bos taurus, UniProt P02769); conditions: 3-HK with Cu(II); TETA
[3] = Metal reduction assay, Cu(II) to Cu(I) (BC/BCA indicator); format: biochemical; conditions: chelator 250 μM
Method: Metal Reduction Assays—Assays were performed using a 96-well microtiter plate (Costar, Mass.). Test compounds from the kynurenine pathway (10 μM) or, as a positive control, ascorbic acid (ASC, 10 μM) were co-incubated with either Fe(III)-citrate (25 μM) and the Fe(II) indicator bathophenanthroline disulfonic acid (BP, 250 μM), or Cu(II)-glycine (25 μM) and the Cu(I) indicator bathocuproine disulfonic acid (BC) or bicinchoninic acid (BCA, 250 μM). Incubations were conducted in PBS, pH 7.4, at 37° C. in the dark for one hour. Absorbencies were then measured using a plate reader (SPECTRAmax Plus, Molecular Devices, CA) at the appropriate wavelengths: Fe(II)-BP complex at 535 nm (the known molar absorption coefficient, M535,=22140 M^−1 cm^−1), Cu(I)-BC complex at 483 nm, M483=12250 M^−1cm^−1), or Cu(I)-BCA complex at 562 nm, M562=7700 M^−1cm^−1). In control samples, absorbance from the metal ion and indicator in the absence of test compound and the absorbance of test compound in the presence of metal ions, but in the absence of indicator, were determined. The absorbencies from these controls were deducted from those obtained in the presence of the test compound, metal and indicator to yield the net absorbance (ΔA). Fe(II) or Cu(I) concentrations (μM) were calculated according to the formula: C(μM)=ΔA*10^6/Mλ.
The compounds comprising the kynurenine pathway (FIG. 1) were assayed for their ability to reduce […] and Cu(II) (FIG. 2A). […] Values represent the mean±SD for three independent measurements.

[4] = biological target: T1, αB-crystallin (Bos taurus, UniProt P02510); experiment: αB-crystallin cross-linking in total calf lens protein (Western blot)
T1 sequence (P02510 1-175): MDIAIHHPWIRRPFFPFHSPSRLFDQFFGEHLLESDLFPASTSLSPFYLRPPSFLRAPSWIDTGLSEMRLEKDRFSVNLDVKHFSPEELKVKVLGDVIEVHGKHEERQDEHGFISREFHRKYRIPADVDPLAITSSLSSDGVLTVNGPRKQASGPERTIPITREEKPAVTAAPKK

[5] = biological target: T2, recombinant human αB-crystallin (Homo sapiens, UniProt P02511); experiment: Recombinant human αB-crystallin cross-linking (SDS-PAGE, silver stain); format: biochemical; conditions: TETA 200 μM
T2 construct: gift of Dr. J. Liang, Brigham and Women's Hospital
T2 sequence (P02511 1-175): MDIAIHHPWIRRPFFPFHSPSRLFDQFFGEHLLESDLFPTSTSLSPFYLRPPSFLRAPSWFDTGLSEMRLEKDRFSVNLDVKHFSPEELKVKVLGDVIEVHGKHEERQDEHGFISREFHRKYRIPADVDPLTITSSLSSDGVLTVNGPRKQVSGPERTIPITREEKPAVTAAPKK
Method: Various solutions containing 3-HK (10 μM) or other kynurenine pathway metabolites (10 μM), Cu(II)-glycine (10 μM), Fe(III)-citrate (10 μM), and triethylenetetramine (TETA, 200 μM), were added in combinations as indicated. […] After incubation, aliquots of the total lens protein solutions were mixed with sample buffer containing 4% SDS and 5% β-mercaptoethanol, heated to 95° C. for 5 minutes, and loaded at 1 μg/lane on a 10–20% Tricine gel (Novex, San Diego, Calif.). […] For the experiments with recombinant αB-crystallin, aliquots of the protein solutions were mixed with sample running buffer containing NuPAGE sample buffer (Novex, San Diego, Calif.) and 10% β-mercaptoethanol, heated to 95° C. for 5 minutes, spun briefly, then loaded on a NuPAGE 4–12% Bis-Tris polyacrylamide gel at 375 ng/lane and electrophoresed with denaturing 3-(N-morpholino)propanesulfonic acid (MOPS)-SDS running buffer according to the manufacturer's recommendations.
To exclude the effects of other lens proteins on the observed findings in FIG. 5, these interactions with purified recombinant human αB-crystallin were examined.

[6] = Metal reduction capacity of tanned calf lens α-crystallin, Fe(III); format: biochemical; conditions: α-crystallin preparation 100 μg/ml, Fe(III)-citrate 25 μM, one hour 37° C.
Method: (§1) Studies of Tanned Calf Lens Crystalin in Assay of Crystallin Protein for Metal Reduction Capacity—α-Crystallin (10 mg/ml) from calf lens was modified by reaction with 3-HK (100 μM), 3-HAA (100 μM), or ASC (100 μM) in PBS, ph 7.4, for 12 hours at 4° C. in the dark. Control samples were incubated with ascorbic acid (100 μM) or without added reductant. The tanning incubation solutions also contained triethylenetetramine (TETA, 200 μM) to prevent cross-linking of the protein. After incubation, free reductant was removed from the tanned α-crystallin preparations by exhaustive dialysis at 4EC in the dark utilizing PBS, pH 7.4, containing CHELEX™ 100 chelating ion exchange resin (BioRad, Hercules, Calif.). The various modified α-crystallin preparations (100 μg/ml) were co-incubated with either Cu(II)-glycine glycine (25 μM) or Fe(III)-citrate (25 μM) for one hour at 37° C. and assayed for metal reduction capacity using the BC and BP spectrophotometric assay as detailed above. Incubated and dialyzed α-crystallin (100 μg/ml) and untreated α-crystallin (100 μg/ml) preparations were used for procedural control.
(§2) 3-HK: α-crystallin reduced nearly 100% of the available Cu(II) and approximately 20% of the available Fe(III). 3-HAA: α-crystallin reduced approximately 65% of the available Cu(II).

[7] = Metal reduction capacity of tanned calf lens α-crystallin, Cu(II); format: biochemical; conditions: α-crystallin preparation 100 μg/ml, Cu(II)-glycine 25 μM, one hour 37° C.
Method: as §1, §2

Sequence of bovine serum albumin (BSA) (P02769 25-607): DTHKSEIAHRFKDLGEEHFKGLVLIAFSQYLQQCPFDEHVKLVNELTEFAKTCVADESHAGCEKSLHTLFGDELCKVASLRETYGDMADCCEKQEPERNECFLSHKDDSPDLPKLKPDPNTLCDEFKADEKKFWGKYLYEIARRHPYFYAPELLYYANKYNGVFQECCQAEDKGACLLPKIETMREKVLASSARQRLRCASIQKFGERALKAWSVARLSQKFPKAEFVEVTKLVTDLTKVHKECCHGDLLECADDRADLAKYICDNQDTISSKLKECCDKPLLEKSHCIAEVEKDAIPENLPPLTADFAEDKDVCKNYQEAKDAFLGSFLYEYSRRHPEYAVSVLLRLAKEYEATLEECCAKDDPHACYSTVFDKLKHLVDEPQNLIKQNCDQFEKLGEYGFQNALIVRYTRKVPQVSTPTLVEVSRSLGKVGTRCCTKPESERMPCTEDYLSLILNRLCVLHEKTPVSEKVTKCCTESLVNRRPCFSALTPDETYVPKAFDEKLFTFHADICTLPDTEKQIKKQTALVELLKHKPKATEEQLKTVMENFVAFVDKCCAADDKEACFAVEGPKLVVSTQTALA

Q: With `NCCNCCNCCN` [TETA, triethylenetetramine, reference compound] as the molecule, how does the “effect on hydrogen peroxide generation by 3-HK or 3-HAA” value [1] read?
A: Its value is “abolished”.

Q: And the “effect on BSA protein depletion” value [2]?
A: The value was “abolished”.

Q: What about the “effect of chelator on metal reduction by 3-HK, 3-HAA and XA” value [3] of the same molecule?
A: The value was “abolished”.

Q: And the “effect on 3-HK induced αB-crystallin cross-linking” value ([4]; TETA 200 μM co-incubation)?
A: Its value is “abolished”.

Q: What about the “effect on depletion of monomeric αB-crystallin” value ([4]; co-incubated with 3-HK and Cu(II), TETA 200 μM) of the same molecule?
A: Its value is “reversed the depletion”.

Q: And the “effect on 3-HAA Cu(II)-dependent oligomerization and loss of the monomer” value [5]?
A: The value was “reversed”.

Q: What about the “effect on cross-linking by Cu(II) and 3-HK” value [5] of the same molecule?
A: The value was “substantially attenuated”.

Q: What about the “effect on depletion of monomeric αB-crystallin by 3-HK and Cu(II)” value [5] of the same molecule?
A: Its value is “completely reversed the depletion”.

B1: α-Crystallin: unmodified α-crystallin from calf lens, procedural control (protein, UniProt P02470 1-173; P02510 1-175, looked up)
Alpha-crystallin A chain: MDIAIQHPWFKRTLGPFYPSRLFDQFFGEGLFEYDLLPFLSSTISPYYRQSLFRTVLDSGISEVRSDRDKFVIFLDVKHFSPEDLTVKVQEDFVEIHGKHNERQDDHGYISREFHRRYRLPSNVDQSALSCSLSADGMLTFSGPKIPSGVDAGHSERAIPVSREEKPSSAPSS
Alpha-crystallin B chain: MDIAIHHPWIRRPFFPFHSPSRLFDQFFGEHLLESDLFPASTSLSPFYLRPPSFLRAPSWIDTGLSEMRLEKDRFSVNLDVKHFSPEELKVKVLGDVIEVHGKHEERQDEHGFISREFHRKYRIPADVDPLAITSSLSSDGVLTVNGPRKQASGPERTIPITREEKPAVTAAPKK
Q: Which results are given for B1?
A: reduction of available Fe(III) [6]: negligible percentage; reduction of available Cu(II) [7]: approximately 35%

B2: 3-HK: α-crystallin: calf lens α-crystallin modified (tanned) by reaction with 3-HK, free metabolite removed by dialysis (protein, UniProt P02470 1-173; P02510 1-175, looked up)
Alpha-crystallin A chain: MDIAIQHPWFKRTLGPFYPSRLFDQFFGEGLFEYDLLPFLSSTISPYYRQSLFRTVLDSGISEVRSDRDKFVIFLDVKHFSPEDLTVKVQEDFVEIHGKHNERQDDHGYISREFHRRYRLPSNVDQSALSCSLSADGMLTFSGPKIPSGVDAGHSERAIPVSREEKPSSAPSS
Alpha-crystallin B chain: MDIAIHHPWIRRPFFPFHSPSRLFDQFFGEHLLESDLFPASTSLSPFYLRPPSFLRAPSWIDTGLSEMRLEKDRFSVNLDVKHFSPEELKVKVLGDVIEVHGKHEERQDEHGFISREFHRKYRIPADVDPLAITSSLSSDGVLTVNGPRKQASGPERTIPITREEKPAVTAAPKK
modifications: modified with 3-hydroxykynurenine
notes: calf lens α-crystallin modified (tanned) by reaction with 3-HK, free metabolite removed by dialysis
Q: With B2 as the molecule, how does the “reduction of available Fe(III)” value [6] read?
A: Its value is “approximately 20%”.

Q: What about the “reduction of available Cu(II)” value [7] of the same molecule?
A: Its value is roughly 100%.

— patent publication US7166472B2, “Method for the identification of agents that inhibit or promote cataracts and uses thereof” (The General Hospital Corporation, priority 2000, dated 2007)
